From the NIST ThermoML archive (doi:10.1021/je030127e)

Assay: xn = mol fraction of the nth substance listed
Settings: 101.3 kPa, Liquid; for viscosity: Capillary tube (Ostwald / Ubbelohde) method

CCCCN [1-butanamine] + COCCO
Settings	speed of sound, 298.15 K [m/s]	viscosity, 293.15 K [mPa·s]	viscosity, 298.15 K [mPa·s]	viscosity, 303.15 K [mPa·s]
x2 = 0	1251.6	0.525	0.496	0.467
x2 = 0.0501	1257	0.566	0.536	0.504
x2 = 0.0999	1262.3	0.613	0.578	0.544
x2 = 0.1508	1267.7	0.669	0.625	0.588
x2 = 0.2001	1273.1	0.731	0.68	0.636
x2 = 0.2509	1278.4	0.801	0.743	0.691
x2 = 0.3	1283.6	0.879	0.81	0.75
x2 = 0.3498	1288.8	0.964	0.886	0.815
x2 = 0.4001	1294	1.053	0.966	0.885
x2 = 0.4511	1299.1	1.146	1.049	0.957
x2 = 0.5001	1304	1.238	1.133	1.031
x2 = 0.5496	1308.8	1.327	1.214	1.103
x2 = 0.5997	1313.5	1.412	1.29	1.17
x2 = 0.6503	1318.1	1.488	1.358	1.232
x2 = 0.7	1322.4	1.552	1.415	1.286
x2 = 0.7492	1326.6	1.604	1.461	1.327
x2 = 0.7999	1330.7	1.643	1.493	1.359
x2 = 0.8491	1334.5	1.671	1.516	1.379
x2 = 0.8993	1338	1.686	1.525	1.389
x2 = 0.95	1341.4	1.696	1.533	1.395
